Test system: P. aeruginosa strains PAO1, 33356, 6294, 6077
Test: P. aeruginosa acute pneumonia model, survival
Type: in vivo, BALB/c mice
Method: FIG. 6 (A-G): Survival rates for animals treated with anti-Psl monoclonal antibodies Cam-003 or WapR-004 in a P. aeruginosa acute pneumonia model. (A-D) Animals were treated with Cam-003 at 45, 15, and 5 mg/kg and R347 at 45 mg/kg or PBS 24 hours prior to intranasal infection with (A) PAO1 (1.6×10^7 CFU), (B) 33356 (3×10^7 CFU), (C) 6294 (7×10^6 CFU), (D) 6077 (1×10^6 CFU). (E-F) Animals were treated with WapR-004 at 5 and 1 mg/kg as indicated followed by infection with 6077 at (E) (8×10^5 CFU), or (F) (6×10^5 CFU). Animals were carefully monitored for survival up to 72 hours (A-D) or for 120 hours (E-F). (G) Animals were treated with Cam-003 at 15 mg/kg or 5 mg/kg, or R347 at 15 mg/kg 24 hours prior to intranasal infection with PAO1 (4.4×10^7 CFU), and Cam-003 at 15 mg/kg 24 hours prior to intranasal infection with PAO1ΔpslA (3×10^7 CFU). In all experiments, PBS and R347 served as negative controls. Results are represented as Kaplan-Meier survival curves; differences in survival were calculated by the Log-rank test for Cam-003 vs. R347. (A) Cam-003 (45 mg/kg—P<0.0001; 15 mg/kg—P=0.0003; 5 mg/kg—P=0.0033). (B) Cam-003 (45 mg/kg—P=0.0012; 15 mg/kg—P=0.0012; 5 mg/kg—P=0.0373). (C) Cam-003 (45 mg/kg—P=0.0007; 15 mg/kg—P=0.0019; 5 mg/kg—P=0.0212). (D) Cam-003 (45 mg/kg—P<0.0001; 15 mg/kg—P<0.0001; 5 mg/kg—P=0.0001). Results are representative of at least two independent experiments. (E) [Cam-003 (5 mg/kg) vs. R347 (5 mg/kg): P=0.02; Cam-003 (1 mg/kg) vs. R347 (5 mg/kg): P=0.4848; WapR-004 (5 mg/kg) vs. R347 (5 mg/kg): P<0.0001; WapR-004 (1 mg/kg) vs. R347 (5 mg/kg): P=0.0886; WapR-004 (5 mg/kg) vs. Cam-003 (5 mg/kg): P=0.0017; WapR-004 (1 mg/kg) vs. Cam-003 (1 mg/kg): P=0.2468; R347 (5 mg/kg) vs. PBS: P=0.6676] (F) [Cam-003 (5 mg/kg) vs. R347 (5 mg/kg): P=0.0004; Cam-003 (1 mg/kg) vs. R347 (5 mg/kg): P<0.0001; WapR-004 (5 mg/kg) vs. R347 (5 mg/kg): P<0.0001; WapR-004 (1 mg/kg) vs. R347 (5 mg/kg): P<0.0001; WapR-004 (5 mg/kg) vs. Cam-003 (5 mg/kg): P=0.0002; WapR-004 (1 mg/kg) vs. Cam-003 (1 mg/kg): P=0.2628; R347 (5 mg/kg) vs. PBS: P=0.6676. (G) Cam-003 (15 mg/kg—P=0.0028; 5 mg/kg—P=0.0028)]. Results are representative of five independent experiments.
Antibodies or PBS were administered 24 hours before infection in each model. P. aeruginosa acute pneumonia, keratitis, and thermal injury infection models were performed as described (DiGiandomenico, A., et al., Proc Natl Acad Sci USA 104, 4624-4629 (2007)), with modifications. In the acute pneumonia model, BALB/c mice (The Jackson Laboratory) were infected with P. aeruginosa strains suspended in a 0.05 ml inoculum. In the thermal injury model, CF-1 mice (Charles River) received a 10% total body surface area burn with a metal brand heated to 92° C. for 10 seconds. Animals were infected subcutaneously with P. aeruginosa strain 6077 at the indicated dose. For organ burden experiments, acute pneumonia was induced in mice followed by harvesting of lungs, spleens, and kidneys 24 hours post-infection for determination of CFU.

With “Cam-003: human IgG1 anti-Psl monoclonal antibody, VH SEQ ID NO: 1 and VL SEQ ID NO: 2” the survival (Psl mutant strain PAO1ΔpslA, FIG. 6G) was “Increased survival was not observed”, the “activity versus Cam-003-TM” value (larger infectious inoculum of 6077 (1.07×10^6), titrated antibody dose, FIG. 9E) was “superior to Cam-003-TM” and the survival (strain 6077, 5 mg/kg, FIG. 6D) was 90%. The survival (strain 33356, 5 mg/kg, FIG. 6B) was 80%, the survival (strain PAO1, at 120 hours, FIG. 6G) was 100% and the protection from challenge (strains 33356 and 6077, 45 and 15 mg/kg, FIGS. 6B, 6D) was “complete protection”. The survival (strains PAO1 and 6294, 45, 15, 5 mg/kg 24 hours prior to intranasal infection, FIGS. 6A, 6C) was “significant concentration-dependent survival”.
